“Also recorded” adds a separate entry of the source. No end group written: not given here.
Columns and labels:
[1] = system: BaF/3 cells transfected with the EGFR (BaF/3-EGFR); experiment: Activatory ligand stimulated mitogenesis assay; type: cell-based; settings: for potentiation of mitogenesis of BaF/3-EGFR cells: titrating concentrations of variant ligand, preliminary results, data not shown
Protocol: BaF/3 cells transfected with the EGFR (BaF/3-EGFR; Walker et al, Growth Factors 16: 53-67, 1998) are washed three times to remove residual IL-3 and resuspended in RPMI 1640+10% FCS. Cells are then seeded into 96 well plates using a Biomek 2000 (Beckman) at 2×10^4 cells per 200 microlitres and incubated for 4 h at 37 C in 10% CO2. To determine the efficacy of this system with a positive control, cells are first grown with titrating concentrations of activatory ligand EGF alone, to determine the minimum amount of ligand required to achieve maximal or sub-maximal receptor-mediated mitogenesis for these cells. […] Titrating concentrations of ErbB variant ligands are added to the cells to test their mitogenic potential. In a similar manner, BaF/3 or different cells expressing a range of ErbB receptors, rendering them mitogenically responsive to ErbB ligand stimulation, are used to test these and other variant ligands for activatory ligand stimulated mitogenesis (exemplified in Harari et. al., 1999).

[2] = system: soluble ErbB1 (soluble EGFR amino acids 1-501 and 1-621); experiment: BIAcore receptor binding assay, immobilized soluble EGFR; settings: peptide up to 10 uM; BIAcore 3000, CM-5 chip; data not shown
Protocol: (§1) Biosensor analyses were performed using a BIAcore™ 3000. A CM-5 (research grade) sensor chip was immobilized with soluble EGFR (amino acids 1-501), soluble EGFR (amino acids 1-621) and soluble ErbB2 (amino acids 1-509) on flowcells 2, 3 and 4, respectively. Immobilizations were performed using amine coupling chemistry in 10 mM Sodium Acetate at pH 4.2. Varying concentrations (1.25 μM, 2.5 μM, 5 μM and 10 μM) of peptides were injected (30 μl) over the sensor surfaces in HBS running buffer (10 mM HEPES, 3.4 mM EDTA, 0.15M NaCl, 0.005% Tween 20, pH 7.4) at a flow rate of 5 μl/min. The surfaces were then regenerated by injecting 10 μl of 10 mM NaOH at a flow rate of 20 μl/min. The resulting sensor curves were subtracted against the blank channel (Flowcell 1) to yield the specific response.

Betacellulin = experiment: BIAcore ligand-ligand interaction, immobilized Betacellulin; type: binding, human or bovine; settings: peptide 0.3-10 μM (in some cases 50 μM); BIAcore 3000, blank channel subtracted; FIG. 6
Protocol: Biosensor analyses were performed using a BIAcore™ 3000. A CM-5 (research grade) sensor chip was immobilized with recombinant human or bovine EGF, TGF alpha and Betacellulin on flowcells 2, 3 and 4, respectively. Immobilizations were performed using amine coupling chemistry in 10 mM Sodium Acetate at pH 4.2. Varying concentrations (0.3 μM, 0.6 μM, 1.25 μM, 2.5 μM, 5 μM, 10 μM [and in some cases 50 μM]) of hNRG2(1-32), mEGF(1-32) & hEGF(1-32) were injected (30 μl) over the sensor surfaces in HBS running buffer (10 mM HEPES, 3.4 mM EDTA, 0.15M NaCl, 0.005% Tween 20, pH 7.4) at a flow rate of 5 μl/min. The surfaces were then regenerated by injecting 10 μl of 10 mM NaOH at a flow rate of 20 μl/min. The resulting sensor curves were subtracted against the blank channel (Flowcell 1) to yield the specific response.

[3] = target: T1, soluble ErbB2 (amino acids 1-509) (Homo sapiens, UniProt P04626); experiment: BIAcore receptor binding assay, immobilized soluble ErbB2; settings: peptide up to 10 uM; BIAcore 3000, CM-5 chip; data not shown
T1 construct: soluble ErbB2 (amino acids 1-509)
Protocol: as §1

| Substance | mitogenic response of BaF/3-EGFR cells ([1]; positive control at a concentration of approximately 200 μM) | binding to immobilized soluble ErbB1 [2] | binding to immobilized Betacellulin (Betacellulin) | binding to immobilized soluble ErbB2 [3] | potentiation of mitogenesis of BaF/3-EGFR cells [1] |
| --- | --- | --- | --- | --- | --- |
| EGF: activatory ligand EGF purified from mouse salivary glands, positive control (NSYPGCPSSYDGYCLNGGVCMHIESLDSYTCNCVIGYSGDRCQTRDLRWWELR; Epidermal growth factor; UniProt P01132 977-1029, looked up) [reference compound] | sub-maximal to maximal mitogenic response | – | – | – | – |
| GHARKCNETAKSYCVNGGVCYYIEGINQLSCK-OH (also: air-oxidised refolding, disulfide pairing not given here) [hNRG2(1-32)] | – | failed to demonstrate measurable binding | weak binding; also recorded: low affinity interaction | failed to demonstrate measurable binding | do not potentiate mitogenesis |
| NSDSECPLSHDGYCLHDGVCMYIEALDKYACK-OH (not fully specified; C-terminal free acid) [hEGF(1-32)] | – | – | no binding | – | – |
| NSYPGCPSSYDGYCLNGGVCMHIESLDSYTCK-OH (C-terminal free acid) [mEGF(1-32)] | – | failed to demonstrate measurable binding | weak binding; also recorded: low affinity interaction | failed to demonstrate measurable binding | do not potentiate mitogenesis |

Reference: patent publication US20090131308A1, “Splice Variants of ErbB Ligands, Compositions and Uses Thereof” (AGOS BIOTECH LTD., priority 2003, published 2009)
